Tested on: pulmonary lesions
Experiment: Tumor-to-background ratio (TBR) during OTL38-based intraoperative molecular imaging (IMI)-guided lung resection
Assay type: in vivo, patients
Conditions: OTL38 0.025 mg/kg infused up to 24 h prior to surgery
Method: Appropriate authorization was obtained from the University of Pennsylvania Perelman School of Medicine Institutional Review Board prior to data collection. Data was retrospectively analyzed from a prospectively collected database. Surgical procedures were performed by the surgeons at the Department of Thoracic Surgery at the Hospital of the University of Pennsylvania. A total of 279 patients were included in the study. All patients enrolled in the study presented with suspicious pulmonary nodules in conjunction with the recommendations from the Fleischner Society Guidelines for Pulmonary Nodules based on high-quality 1 mm slice thickness CT scanning. Based on institutional practice patterns, pre-operative tissue sampling and diagnosis was not mandatory. Selected patients underwent appropriate pre-operative clearance and metastatic disease work up prior to operative scheduling with video-assisted thoracoscopic surgical (VATS) lobectomy being the procedure of choice.
Analyzed patients underwent infusion of the study drug OTL38 (0.025 mg/kg) up to 24 h prior to surgery. OTL38 (C61H63N9Na4O17S4, MW: 1414.42) is a folate analog conjugated to the NIR dye, S0456. OTL38 excites at 774-776 nm and emits at 794-796 nm. […] The iridium system utilizes an excitation laser with a wavelength of 805 nm, with fluorescence detection based on a bandpass filter selective to light ranging from 825 to 850 nm. […]
Postoperatively, all the IMI images were uploaded to the deidentified secure database for analysis. Mean fluorescence intensity of the tumors was calculated from ImageJ (from National Institutes of Health) software with minimum 1000 pixels being included in the analysis. To minimize inter-observer bias, a protocol was established where the in situ and ex vivo TBRs were calculated by three blinded independent observers. Results were re-calculated by different observers if at least two blinded observer TBR measurements were not correlating (TBR values ±0.2 from each other). TBR results were then compared to final pathological diagnosis and analyzed for their correlation with in situ fluorescence. […]

CC1(C)C(/C=C/C2=C(Oc3ccc(C[C@H](NC(=O)c4ccc(NCc5cnc6nc(N)[nH]c(=O)c6n5)cc4)C(=O)[O-])cc3)C(=C/C=C3\N(CCCCS(=O)(=O)[O-])c4ccc(S(=O)(=O)[O-])cc4C3(C)C)/CCC2)=[N+](CCCCS(=O)(=O)[O-])c2ccc(S(=O)(=O)[O-])cc21.[H+].[H+].[H+].[H+] [OTL38]
In situ TBR, mean (entire cohort of 279 patients, Iridium NIR imaging, ImageJ): 2.84 | Ex vivo TBR bisected tumor, mean (entire cohort, bisected specimen, 0.025 mg/kg): 4 | Ex vivo TBR (back table), mean (entire cohort, resected specimen): 3.09

From US20250057426A1, “COMPUTER-IMPLEMENTED METHODS AND ASSOCIATED SYSTEMS FOR DETECTING MALIGNANCY” (The Trustees of the University of Pennsylvania, priority 2021, published 2025)
